In US20220089578A1, “COMPOUNDS AS GLP-1R AGONISTS” (Terns Pharmaceuticals, Inc., priority 2020, published 2022):

Target: human GLP-1R (Homo sapiens, UniProt P43220)
Assay: GLP-1R Cell Assay 2: CHO-K1_hGLP-1Rlow_clone10 cells, LANCE Ultra cAMP TR-FRET assay
Type: cell-based
Parameters: expressed in transfected cells
Settings: Table 3, percent activation relative to control GLP-1 peptide agonist
Procedure: Stable cell lines expressing high and low GLP-1R surface expression were generated in CHO-K1 cells transfected (Fugene 6) with a puromycin selectable DNA plasmid encoding human GLP-1R receptor (accession number: NM_002062.5) under control of an EF1A promoter. Transfected cells were seeded into 24-well plates (9,000 cells/well) containing complete medium and incubated in a humidified incubator at 37° C. with 5% carbon dioxide. After overnight incubation, medium was replaced with complete medium supplemented with puromycin (6 μg/mL) and refreshed every 2-3 days to select for stably transfected cells. Individual pools of selected cells were expanded prior to analysis for responsiveness to GLP-1 control peptide using a TR-FRET assay to detect cAMP (LANCE Ultra cAMP Assay, Perkin Elmer). Briefly, cells were collected in Versene solution, plated in 384-well plates (1,000 cells/well) and combined with serially diluted GLP-1R control peptide (10 nL) using an acoustic dispenser (ECHO). Plates were incubated for 30 minutes at 25° C. prior to the addition of EU-cAMP tracer (5 μL) and Ulight-anti-cAMP (5 μL) reagents to each well, followed by 15 minutes incubation at 25° C. TR-FRET signal was detected using an EnVision Multimode Plate Reader (excitation=320 nm; emission=615 and 655 nm). Dose-response curves were used to generate EC50 values as a measure of responsiveness to the GLP-1R control peptide. Selected cell lines were monitored for responsiveness over multiple passages to ensure stability. […] Briefly, GLP-1R expression was analyzed by flow cytometry using a fluorescein-labeled Exendin-4 peptide fluorescent probe (FLEX). Cells were harvested in Versene solution and washed 3-times with PBS+0.5% BSA before incubation with FLEX reagent (10 μM) for 2 hours at room temperature. After incubation, cells were washed 3-times in PBS+0.5% BSA before final resuspension in PBS prior to analysis by flow cytometry to measure FLEX mean fluorescence intensity (MFI) as a measure of GLP-1R expression on the cell surface.
For compound testing in the CHO-K1_hGLP-1Rlow_clonel0 cell lines, cells were seeded in 384-well plates (1,000 cells/well). Test compounds were serially diluted in DMSO (10-point, 3-fold dilution), added to wells using an ECHO dispenser (10 nL/well) and plates were centrifuged for 1 min and agitated for 2 min at room temperature prior to 30-minute incubation at 25° C. After incubation, Eu-cAMP (5 p,L) and Ulight-anti-cAMP (5 μL) reagents were added to each well, followed by centrifugation for 1 minute, agitation for 2 minutes at room temperature, and final incubation of the plates at 25° C. for 15 minutes. Plates were read using an EnVision microplate reader (excitation=320 nm; emission=615 and 655 nm). Dose-response curves were generated from duplicate wells based on percent activation calculated relative to a control GLP-1 peptide agonist that was run in parallel. EC50 values were determined by fitting percent activation as a function of compound concentration using the Hill equation (XLfit).

Sequence of human GLP-1R (P43220 24-463): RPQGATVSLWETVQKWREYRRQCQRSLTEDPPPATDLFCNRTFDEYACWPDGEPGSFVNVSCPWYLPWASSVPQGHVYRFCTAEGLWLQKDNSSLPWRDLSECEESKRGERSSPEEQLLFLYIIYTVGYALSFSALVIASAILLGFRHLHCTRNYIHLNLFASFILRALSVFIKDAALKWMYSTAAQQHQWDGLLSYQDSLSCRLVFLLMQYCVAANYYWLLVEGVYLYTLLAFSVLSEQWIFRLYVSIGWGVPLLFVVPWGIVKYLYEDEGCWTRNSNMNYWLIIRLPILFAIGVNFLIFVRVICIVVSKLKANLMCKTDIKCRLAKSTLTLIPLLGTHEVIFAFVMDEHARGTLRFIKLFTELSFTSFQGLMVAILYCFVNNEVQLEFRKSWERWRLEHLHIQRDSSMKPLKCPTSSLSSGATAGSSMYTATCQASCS

Row | EC50 | SMILES
1 | 13.2 nM | N#Cc1cccc2c(COc3cccc(C4CCN(Cc5nc6ccc(C(=O)O)cc6n5C[C@@H]5CCO5)CC4)n3)csc12 [Compound 187, (S)-2-((4-(6-((7-cyanobenzo[b]thiophen-3-yl)methoxy)pyridin-2-yl)piperidin-1-yl)methyl)-1-(oxetan-2-ylmethyl)-1H-benzo[d]imidazole-6-carboxylic acid]
2 | 63.4 nM | O=C(O)c1ccc2nc(CN3CCC(c4cccc(OCc5csc6c(C(F)(F)F)cccc56)n4)CC3)n(C[C@@H]3CCO3)c2c1 [Compound 174, (S)-1-(oxetan-2-ylmethyl)-2-((4-(6-((7-(trifluoromethyl)benzo[b]thiophen-3-yl)methoxy)pyridin-2-yl)piperidin-1-yl)methyl)-1H-benzo[d]imidazole-6-carboxylic acid]
3 | > 10000 nM | O=C(O)c1ccc2nc(CN3CCC(c4cccc(Oc5ccccc5)n4)CC3)n(C[C@@H]3CCO3)c2c1 [Compound 183, (S)-1-(oxetan-2-ylmethyl)-2-((4-(6-phenoxypyridin-2-yl)piperidin-1-yl)methyl)-1H-benzo[d]imidazole-6-carboxylic acid]
4 | 13.2 nM | N#Cc1cccc2c(COc3cccc(C4CCN(Cc5nc6ccc(C(=O)O)cc6n5C[C@@H]5CCO5)CC4)n3)csc12 [Compound 173, (S)-2-((4-(6-((7-cyanobenzo[b]thiophen-3-yl)methoxy)pyridin-2-yl)piperidin-1-yl)methyl)-1-(oxetan-2-ylmethyl)-1H-benzo[d]imidazole-6-carboxylic acid]

The remaining lines, values behind:

Row | SMILES | EC50
5 | CC1=NCC(Cn2c(CN3CCC(c4cccc(OCc5ccc(C#N)cc5F)n4)CC3)nc3ccc(C(=O)O)cc32)O1 (single isomer, unassigned) [Compound 176, 2-((4-(6-((4-cyano-2-fluorobenzyl)oxy)pyridin-2-yl)piperidin-1-yl)methyl)-1-((2-methyl-4,5-dihydrooxazol-5-yl)methyl)-1H-benzo[d]imidazole-6-carboxylic acid] | 1590 nM
6 | CCn1cncc1Cn1c(CN2CC[C@@]3(c4nccc(OCc5ccc(C#N)cc5F)n4)C[C@H]3C2)nc2ccc(C(=O)O)cc21 [Compound 185-P1, 2-(((1R,6S)-6-(4-((4-cyano-2-fluorobenzyl)oxy)pyrimidin-2-yl)-3-azabicyclo[4.1.0]heptan-3-yl)methyl)-1-((1-ethyl-1H-imidazol-5-yl)methyl)-1H-benzo[d]imidazole-6-carboxylic acid] | 1.69 nM
7 | CCn1cncc1Cn1c(CN2CCC(c3cccnc3OCc3ccc(C#N)cc3F)CC2)nc2ccc(C(=O)O)cc21 [Compound 169, 2-((4-(2-((4-cyano-2-fluorobenzyl)oxy)pyridin-3-yl)piperidin-1-yl)methyl)-1-((1-ethyl-1H-imidazol-5-yl)methyl)-1H-benzo[d]imidazole-6-carboxylic acid] | 1.14 nM
8 | CCn1nncc1Cn1c(CN2CCC(c3cccc(OCc4nc5c(F)cc(C#N)cc5s4)n3)CC2)nc2ccc(C(=O)O)cc21 [Compound 178, 2-((4-(6-((6-cyano-4-fluorobenzo[d]thiazol-2-yl)methoxy)pyridin-2-yl)piperidin-1-yl)methyl)-1-((1-ethyl-1H-1,2,3-triazol-5-yl)methyl)-1H-benzo[d]imidazole-6-carboxylic acid] | 7.56 nM
9 | CCn1cccc1Cn1c(CN2CCC(c3cccc(OCc4nc5c(F)cc(C#N)cc5s4)n3)CC2)nc2ccc(C(=O)O)cc21 [Compound 180, 2-((4-(6-((6-cyano-4-fluorobenzo[d]thiazol-2-yl)methoxy)pyridin-2-yl)piperidin-1-yl)methyl)-1-((1-ethyl-1H-pyrrol-2-yl)methyl)-1H-benzo[d]imidazole-6-carboxylic acid] | 215 nM
10 | O=C(O)c1ccc2nc(CN3CCC(c4cccc(OCc5nc(C6CC6)cs5)n4)CC3)n(C[C@@H]3CCO3)c2c1 [Compound 181, (S)-2-((4-(6-((4-cyclopropylthiazol-2-yl)methoxy)pyridin-2-yl)piperidin-1-yl)methyl)-1-(oxetan-2-ylmethyl)-1H-benzo[d]imidazole-6-carboxylic acid] | 22.8 nM
